# In ChEMBL document CHEMBL1955715 (Bioorg Med Chem Lett, 2012):
# The source made the active and inactive calls. The calls are words filed in the database; no cut-off is given here.
# Tests used:
# [1] = system: Rattus norvegicus; assay: Wake promoting activity in EEG/EMG Sprague-Dawley rat model assessed as total time awake at 100 mg/kg, ip measured up to 3 hrs (reference value: 65 +/- 9 mins); conditions: route intraperitoneal
# [2] = molecular target: T1, Sodium-dependent dopamine transporter (Rattus norvegicus, UniProt P23977); assay: Inhibition of rat DAT
# [3] = molecular target: CYP2D6 (Homo sapiens, UniProt P10635); assay: Inhibition of CYP2D6 at 10 uM; format: ADME
# [4] = molecular target: Cytochrome P450 2C19 (Homo sapiens, UniProt P33261); assay: Inhibition of CYP2C19; format: ADME
# [5] = molecular target: T1, Sodium-dependent dopamine transporter; assay: Inhibition of rat DAT-mediated dopamine reuptake
# [6] = Solubility of the compound in water at pH 7.4; format: physicochemical
# [7] = Metabolic stability in human liver S9 fraction assessed as compound remaining after 2 hrs; format: ADME, subcellular; conditions: read-out: Stability
# [8] = molecular target: Transporter (Rattus norvegicus, UniProt Q63380); assay: Inhibition of rat NET-mediated norepinephrine reuptake
# [9] = molecular target: Voltage-gated inwardly rectifying potassium channel KCNH2 (Homo sapiens, UniProt Q12809); assay: Inhibition of human ERG at 10 uM
# [10] = molecular target: Sodium-dependent serotonin transporter (Rattus norvegicus, UniProt P31652); assay: Inhibition of rat SERT-mediated serotonin reuptake
# [11] = system: Salmonella typhimurium; assay: Mutagenic activity in Salmonella Typhimurium by Mini-Ames test; format: toxicity, organism-based; conditions: salmonella enterica subsp. enterica serovar typhimurium
# [12] = system: Rattus norvegicus; assay: Wake promoting activity in po dosed EEG/EMG Sprague-Dawley rat model assessed as slow wave sleep and rapid eye movement sleep; format: functional, organism-based
# [13] = molecular target: CYP3A4 (Homo sapiens, UniProt P08684); assay: Inhibition of CYP3A4 at 10 uM; format: ADME
# [14] = system: Plasma; assay: Plasma concentration in human; format: ADME, cell-free
# Chain of CYP3A4 (P08684 whole entry): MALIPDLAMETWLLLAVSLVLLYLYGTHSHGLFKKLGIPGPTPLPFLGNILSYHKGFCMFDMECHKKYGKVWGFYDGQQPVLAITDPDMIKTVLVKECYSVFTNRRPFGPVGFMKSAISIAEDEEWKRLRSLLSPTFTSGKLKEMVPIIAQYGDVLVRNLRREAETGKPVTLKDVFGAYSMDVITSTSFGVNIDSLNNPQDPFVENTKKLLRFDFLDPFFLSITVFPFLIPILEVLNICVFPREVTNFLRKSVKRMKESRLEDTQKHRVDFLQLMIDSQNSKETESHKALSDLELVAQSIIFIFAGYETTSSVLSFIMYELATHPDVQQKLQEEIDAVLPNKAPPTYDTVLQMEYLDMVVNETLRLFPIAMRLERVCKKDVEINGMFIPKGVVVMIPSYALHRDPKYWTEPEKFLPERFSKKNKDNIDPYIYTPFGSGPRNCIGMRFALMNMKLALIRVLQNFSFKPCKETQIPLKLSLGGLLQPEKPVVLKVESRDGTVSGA
# Chain of Cytochrome P450 2C19 (P33261 whole entry): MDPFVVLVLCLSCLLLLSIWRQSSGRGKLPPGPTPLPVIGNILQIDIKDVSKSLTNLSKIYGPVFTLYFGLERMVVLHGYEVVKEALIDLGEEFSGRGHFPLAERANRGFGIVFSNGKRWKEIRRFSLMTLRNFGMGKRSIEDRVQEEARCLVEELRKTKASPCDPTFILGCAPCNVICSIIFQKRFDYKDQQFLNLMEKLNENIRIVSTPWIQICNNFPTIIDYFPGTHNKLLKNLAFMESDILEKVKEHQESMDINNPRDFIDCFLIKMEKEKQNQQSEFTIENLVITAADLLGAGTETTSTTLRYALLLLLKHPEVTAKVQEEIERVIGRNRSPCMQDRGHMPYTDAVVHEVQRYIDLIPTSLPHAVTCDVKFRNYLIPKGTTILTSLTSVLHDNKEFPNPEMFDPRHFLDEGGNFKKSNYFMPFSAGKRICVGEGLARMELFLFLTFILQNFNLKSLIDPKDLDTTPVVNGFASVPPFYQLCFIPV
# Chain of CYP2D6 (P10635 whole entry): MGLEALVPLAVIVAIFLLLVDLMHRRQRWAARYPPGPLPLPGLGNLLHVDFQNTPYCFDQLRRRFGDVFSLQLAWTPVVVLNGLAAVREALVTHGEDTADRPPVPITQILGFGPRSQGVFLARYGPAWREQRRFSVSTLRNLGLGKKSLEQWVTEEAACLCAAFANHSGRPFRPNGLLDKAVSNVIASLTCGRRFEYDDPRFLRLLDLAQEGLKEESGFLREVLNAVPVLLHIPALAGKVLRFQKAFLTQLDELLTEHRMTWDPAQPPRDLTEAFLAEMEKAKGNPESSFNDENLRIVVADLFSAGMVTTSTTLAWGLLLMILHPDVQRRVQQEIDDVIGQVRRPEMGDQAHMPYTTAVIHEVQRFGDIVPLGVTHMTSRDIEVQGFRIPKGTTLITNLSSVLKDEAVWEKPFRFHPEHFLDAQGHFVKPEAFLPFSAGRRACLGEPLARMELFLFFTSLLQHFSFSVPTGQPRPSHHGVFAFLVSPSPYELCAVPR
# T1 sequence (P23977 whole entry): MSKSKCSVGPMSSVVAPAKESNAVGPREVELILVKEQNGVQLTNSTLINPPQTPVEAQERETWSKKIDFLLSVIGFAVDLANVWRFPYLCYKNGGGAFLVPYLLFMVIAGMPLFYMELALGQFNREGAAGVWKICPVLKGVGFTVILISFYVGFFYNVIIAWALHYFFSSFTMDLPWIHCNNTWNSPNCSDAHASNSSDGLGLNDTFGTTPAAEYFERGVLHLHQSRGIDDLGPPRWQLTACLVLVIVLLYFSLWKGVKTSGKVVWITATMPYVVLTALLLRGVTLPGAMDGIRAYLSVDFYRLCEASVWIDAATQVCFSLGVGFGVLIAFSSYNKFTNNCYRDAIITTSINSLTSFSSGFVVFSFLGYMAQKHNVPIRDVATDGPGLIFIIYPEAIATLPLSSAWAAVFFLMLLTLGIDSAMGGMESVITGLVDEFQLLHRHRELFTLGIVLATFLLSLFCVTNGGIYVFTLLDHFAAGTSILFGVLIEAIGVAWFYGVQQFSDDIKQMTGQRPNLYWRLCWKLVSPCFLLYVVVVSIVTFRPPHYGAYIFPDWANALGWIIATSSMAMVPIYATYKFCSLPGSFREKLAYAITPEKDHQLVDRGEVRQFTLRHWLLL
# Chain of Sodium-dependent serotonin transporter (P31652 whole entry): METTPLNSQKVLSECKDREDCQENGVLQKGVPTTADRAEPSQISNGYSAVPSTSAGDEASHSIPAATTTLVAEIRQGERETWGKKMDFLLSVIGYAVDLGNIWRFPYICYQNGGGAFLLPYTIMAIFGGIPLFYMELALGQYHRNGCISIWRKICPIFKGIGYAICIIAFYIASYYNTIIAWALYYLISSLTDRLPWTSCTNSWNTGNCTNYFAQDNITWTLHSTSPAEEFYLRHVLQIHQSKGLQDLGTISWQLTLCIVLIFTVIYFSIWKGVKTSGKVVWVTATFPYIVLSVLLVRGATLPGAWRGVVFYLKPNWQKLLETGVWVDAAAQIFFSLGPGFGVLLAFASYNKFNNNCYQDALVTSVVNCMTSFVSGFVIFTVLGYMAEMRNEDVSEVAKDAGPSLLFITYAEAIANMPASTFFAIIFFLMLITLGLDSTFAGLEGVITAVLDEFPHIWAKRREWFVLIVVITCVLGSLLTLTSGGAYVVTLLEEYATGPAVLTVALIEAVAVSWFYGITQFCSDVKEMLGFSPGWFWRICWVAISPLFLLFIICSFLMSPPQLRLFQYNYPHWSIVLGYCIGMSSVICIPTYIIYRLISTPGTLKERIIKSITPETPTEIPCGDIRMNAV
# Chain of Transporter (Q63380 whole entry): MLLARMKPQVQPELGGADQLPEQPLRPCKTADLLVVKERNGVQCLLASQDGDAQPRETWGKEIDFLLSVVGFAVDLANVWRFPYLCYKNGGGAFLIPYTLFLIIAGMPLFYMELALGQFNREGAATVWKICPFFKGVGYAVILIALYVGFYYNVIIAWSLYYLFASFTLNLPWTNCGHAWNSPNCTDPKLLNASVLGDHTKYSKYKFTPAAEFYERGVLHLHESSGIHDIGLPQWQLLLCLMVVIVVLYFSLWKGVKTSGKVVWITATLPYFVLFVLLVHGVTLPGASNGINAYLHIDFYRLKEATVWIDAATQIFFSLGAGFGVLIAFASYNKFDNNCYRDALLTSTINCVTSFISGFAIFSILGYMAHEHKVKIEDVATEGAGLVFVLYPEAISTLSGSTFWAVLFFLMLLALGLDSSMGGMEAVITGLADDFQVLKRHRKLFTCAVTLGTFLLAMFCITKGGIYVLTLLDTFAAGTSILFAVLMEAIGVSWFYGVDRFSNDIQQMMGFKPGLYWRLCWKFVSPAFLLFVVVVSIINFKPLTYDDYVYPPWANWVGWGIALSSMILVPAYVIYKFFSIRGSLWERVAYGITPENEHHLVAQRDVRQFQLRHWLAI
# Chain of Voltage-gated inwardly rectifying potassium channel KCNH2 (Q12809 whole entry): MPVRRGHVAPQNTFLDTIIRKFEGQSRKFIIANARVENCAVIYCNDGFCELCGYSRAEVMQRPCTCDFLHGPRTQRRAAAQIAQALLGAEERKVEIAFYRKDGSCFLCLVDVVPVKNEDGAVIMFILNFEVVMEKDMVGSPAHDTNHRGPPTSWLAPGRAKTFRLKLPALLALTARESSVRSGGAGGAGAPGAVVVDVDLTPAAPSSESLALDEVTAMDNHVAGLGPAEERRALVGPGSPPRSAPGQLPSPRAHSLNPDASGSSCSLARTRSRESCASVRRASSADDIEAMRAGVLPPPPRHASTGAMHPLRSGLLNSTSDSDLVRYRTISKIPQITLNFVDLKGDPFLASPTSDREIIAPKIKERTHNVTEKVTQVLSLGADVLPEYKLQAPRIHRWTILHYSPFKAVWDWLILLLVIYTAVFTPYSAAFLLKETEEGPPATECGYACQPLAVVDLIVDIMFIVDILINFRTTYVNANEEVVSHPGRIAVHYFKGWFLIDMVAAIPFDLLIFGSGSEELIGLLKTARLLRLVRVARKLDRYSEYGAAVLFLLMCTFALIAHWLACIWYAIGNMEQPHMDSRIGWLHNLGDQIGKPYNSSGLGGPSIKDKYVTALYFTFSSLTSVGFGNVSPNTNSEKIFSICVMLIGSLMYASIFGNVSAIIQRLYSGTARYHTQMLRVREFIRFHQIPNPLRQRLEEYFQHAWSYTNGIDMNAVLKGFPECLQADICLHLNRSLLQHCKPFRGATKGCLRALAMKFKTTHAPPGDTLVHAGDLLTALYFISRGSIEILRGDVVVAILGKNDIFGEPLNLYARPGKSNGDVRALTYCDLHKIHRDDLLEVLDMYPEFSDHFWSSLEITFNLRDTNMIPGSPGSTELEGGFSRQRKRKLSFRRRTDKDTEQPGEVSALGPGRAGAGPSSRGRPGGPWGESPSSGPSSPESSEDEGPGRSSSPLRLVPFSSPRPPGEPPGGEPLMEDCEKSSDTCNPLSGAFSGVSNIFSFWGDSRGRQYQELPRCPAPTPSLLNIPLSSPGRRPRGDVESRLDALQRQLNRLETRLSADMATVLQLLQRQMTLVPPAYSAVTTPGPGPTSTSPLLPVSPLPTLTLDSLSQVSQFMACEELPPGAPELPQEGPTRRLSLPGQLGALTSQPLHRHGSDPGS
SMILES,Time [1] [min],also measured
NC(=O)C[S+]([O-])Cc1ccccc1-c1ccccc1 (stereo not drawn),119,
NC(=O)C[S+]([O-])Cc1ccccc1-c1ccccc1F (stereo not drawn),64,
COc1ccccc1-c1ccccc1C[S+]([O-])CC(N)=O (stereo not drawn),86,
NC(=O)C[S+]([O-])Cc1ccccc1-c1ccccc1Cl (stereo not drawn),49,
N#Cc1cccc(-c2ccccc2C[S+]([O-])CC(N)=O)c1 (stereo not drawn),99,
NC(=O)C[S+]([O-])Cc1ccccc1-c1cccc(C(N)=O)c1 (stereo not drawn),62,
NC(=O)C[S+]([O-])Cc1ccccc1-c1cccc(Cl)c1 (stereo not drawn),106,
NC(=O)C[S+]([O-])Cc1ccccc1-c1ccc(F)cc1 (stereo not drawn),147,
NC(=O)C[S+]([O-])Cc1ccccc1-c1ccc(Br)cc1 (stereo not drawn),174,
Cc1ccc(-c2ccccc2C[S+]([O-])CC(N)=O)cc1 (stereo not drawn),146,
NC(=O)C[S+]([O-])Cc1ccccc1-c1ccc(OC(F)(F)F)cc1 (stereo not drawn),108,
CC(=O)c1ccc(-c2ccccc2C[S+]([O-])CC(N)=O)cc1 (stereo not drawn),77,
N#Cc1ccc(-c2ccccc2C[S+]([O-])CC(N)=O)cc1 (stereo not drawn),65,
Cc1ccccc1-c1cccc(C[S+]([O-])CC(N)=O)c1 (stereo not drawn),117,
NC(=O)C[S+]([O-])Cc1cccc(-c2ccc(Cl)cc2)c1 (stereo not drawn),96,
NC(=O)C[S+]([O-])Cc1ccc(-c2ccccc2)cc1 (stereo not drawn),100,
NC(=O)C[S+]([O-])Cc1ccc(-c2ccc(Cl)cc2)cc1 (stereo not drawn),92,
NC(=O)C[S+]([O-])Cc1ccccc1-c1ccc(Cl)cc1 (racemic),176,IC50 [2]: 0.6 µM; inhibition at 10 µM [3]: < 10%; IC50 [4]: 19 µM; IC50 [5]: 0.83 µM; solubility [6]: > 0.1 mg/mL; remaining at 2 h [7]: 94%; IC50 [8]: 10 µM; inhibition (INH) [9]: Not Active; IC50 [10]: > 300 µM; Activity [11]: Non-toxic; Activity [12]: Active; inhibition at 10 µM [13]: < 10%
NC(=O)C[S+]([O-])C(c1ccccc1)c1ccccc1 (stereo not drawn) [MODAFINIL],117,concentration [14]: > 30 µM; inhibition at 10 µM [3]: < 10%; IC50 [4]: 11 µM; solubility [6]: > 0.1 mg/mL; remaining at 2 h [7]: 77%; Activity [11]: Non-toxic; inhibition at 10 µM [13]: < 10%
